Where a name gives a salt, the structure may show the parent alone. Read-outs that look alike come from different tables or passages of the source.
How the values were obtained:
[1] = test system: intrahepatic cholangiocarcinoma cell line HuCCT1 (KRAS G12D)
Description: (§1) Cell culture: HuCCT1 cell line harboring KRAS G12D mutation (JCRB Cell Bank #JCRB0425) was maintained in RPMI medium (Dutscher #L0498-500) containing 1% penicillin streptomycin (Dutscher #P06-07100) and 10% fetal bovine serum (Dutscher #SV30160.03C) and were cultured at 37° C. with 5% CO2 in humidified cells incubator.
(§2) HuCCT1 cells were plated at 4.10^3 cells per well in Greiner Bio-one pClear® P96 well plates (Dutscher #655098) with 80 μL of culture media. […] Cell viability was assessed 72 hours post molecular treatment by CellTiter-Glo® luminescent cell viability assay (Promega #G7573) according to the manufacturer protocol and using an Infinity F200 Pro luminometer (Tecan). […] IC50 values were determined as the dose of compound required to reduce luminescent values to 50% of the reference signal obtained for untreated cell cultures. Raw data were analyzed using GraphPad Prism Software v9.4 (GraphPad Software, Inc. La Jolla, CA). For all experiments, analyzed data are shown as mean of triplicate and four independent experiments.

[2] = test system: intrahepatic cholangiocarcinoma cell line HuCCT1 (KRAS G12D); assay: HuCCT1 cell viability assay (CellTiter-Glo), single compounds, 72 hours; conditions: for IC50: Homo sapiens, HuCCT-1, 72 h, read-out: Cell Viability assay IC50
Description: as §1, §2

[3] = test system: intrahepatic cholangiocarcinoma cell line HuCCT1 (KRAS G12D); assay: Combination effect of binary drug-drug associations on HuCCT1 cell viability, Bliss independence model (MacSynergy II); format: cell-based; conditions: growth inhibition of HuCCT1
Description: The HuCCT1 cell viability assay with binary drug-drug association was performed as described in example 1. The drug-drug binary associations of compounds 2-2+Trametinib and HCQ+Trametinib were tested in a checkerboard fashion in Greiner Bio-one pClear® 96-well plates (Dutscher #655098). The concentration ranges were selected nearby and surrounding the IC50 values of each individual compound. Compound 2-2 in combination with Trametinib was tested at 1.28 μM, 1.6 μM, 2.0 μM, 2.5 μM and 3.125 μM. HCQ [747-36-4] in combination with Trametinib was tested at 15 μM, 20 μM, 30 μM, 45 μM, 60 μM. Trametinib (Selleckchem #S2673, [871700-17-3]) in combination with compound 2-2 or in combination with HCQ was tested in both cases at 0.005 μM, 0.03 μM, 6.0 μM, 15 μM, 30 μM, 60 μM, 90 μM. The combination effects of both binary drug-drug association compound 2-2+Trametinib and HCQ+Trametinib were analyzed with two softwares: MacSynergy™ II (1) and SynergyFinder. (2) MacSynergy™ II was used to analyze the combination effect according to the Bliss independence model which assumes probabilistic statistical independence between the combined compounds.(3) The main assumption of the Bliss independence principle is that two or more combined drugs act independently from each other with distinct mode of action. SynergyFinder was used to analyze the combination effect according to the Loewe additivity model which is based on its principle of a sham drug-drug combination which assumes no interaction when a compound is combined with itself.(4)
The combination effects of the drug-drug associations of compound 2-2+Trametinib and hydroxychloroquine+Trametinib were evaluated according to the Bliss independence model using MacSynergy™ II for their respective capacities to inhibit the growth of intrahepatic cholangiocarcinoma cell line HuCCT1 (Table 4).
The HuCCT1 cell viability assay with binary drug-drug association was performed as described in example 1. The binary drug-drug associations of compounds 2-2+Cobimetinib and HCQ+Cobimetinib were tested in a checkerboard fashion in Greiner Bio-one pClear® 96-well plates (Dutscher #655098). The concentration ranges were selected nearby and surrounding the IC50 values of each individual compound. Compound 2-2 in combination with Cobimetinib was tested at 1.28 μM, 1.6 μM, 2.0 μM, 2.5 μM and 3.125 μM. HCQ [747-36-4] in combination with Cobimetinib was tested at 15 μM, 20 μM, 30 μM, 45 μM, 60 μM. Cobimetinib (Selleckchem #S8041, [934660-93-2]) in combination with compound 2-2 or in combination with HCQ was tested in both cases at 0.10 μM, 1.0 μM, 10 μM, 30 μM, 60 μM, 80 μM, 100 μM. The combination effects of both binary drug-drug association compound 2-2+Cobimetinib and HCQ+Cobimetinib were analyzed with two softwares: MacSynergy™ II (1) and SynergyFinder (2). […]
The combination effects of the binary drug-drug associations of compound 2-2+Cobimetinib and hydroxychloroquine+Cobimetinib were evaluated according to the Bliss independence model using MacSynergy™ II for their respective capacities to inhibit the growth of intrahepatic cholangiocarcinoma cell line HuCCT1 (Table 7).

[4] = test system: intrahepatic cholangiocarcinoma cell line HuCCT1 (KRAS G12D); assay: Combination effect of binary drug-drug associations on HuCCT1 cell viability, Loewe additivity model (SynergyFinder); format: cell-based; conditions: growth inhibition of HuCCT1
Description: The HuCCT1 cell viability assay with binary drug-drug association was performed as described in example 1. The drug-drug binary associations of compounds 2-2+Trametinib and HCQ+Trametinib were tested in a checkerboard fashion in Greiner Bio-one pClear® 96-well plates (Dutscher #655098). The concentration ranges were selected nearby and surrounding the IC50 values of each individual compound. Compound 2-2 in combination with Trametinib was tested at 1.28 μM, 1.6 μM, 2.0 μM, 2.5 μM and 3.125 μM. HCQ [747-36-4] in combination with Trametinib was tested at 15 μM, 20 μM, 30 μM, 45 μM, 60 μM. […] The combination effects of both binary drug-drug association compound 2-2+Trametinib and HCQ+Trametinib were analyzed with two softwares: MacSynergy™ II (1) and SynergyFinder. […]
The combination effects of the drug-drug associations of compound 2-2+Trametinib (Table 2) and HCQ+Trametinib (Table 3) were evaluated according to the Loewe additivity model using SynergyFinder for their respective capacities to inhibit the growth of intra-hepatic cholangiocarcinoma cell line HuCCT1.
The HuCCT1 cell viability assay with binary drug-drug association was performed as described in example 1. […] The combination effects of both binary drug-drug association compound 2-2+Cobimetinib and HCQ+Cobimetinib were analyzed with two softwares: MacSynergy™ II (1) and SynergyFinder (2). […]

Row | SMILES | cytotoxic activity against HuCCT1 [1] | IC50 [2] [nM] | cytotoxic activity against HuCCT1 ([2]; HuCCT1, 72 hours) | combination effect when associated with Cobimetinib, Bliss model [3] | combination effect when associated with Trametinib [3] | combination effect when associated with a MEK inhibitor (e.g., Trametinib, Cobimetinib), Bliss independence model [3] | combination effect when associated with Cobimetinib, Loewe model [4]
1 | O=C(c1ccc(F)c(F)c1Nc1ccc(I)cc1F)N1CC(O)([C@@H]2CCCCN2)C1 [Cobimetinib] | dose-response cytotoxic activity | 1200 ± 800 | – | – | – | – | –
2 | CC(C)(C)NC1CCN(c2cc(NCc3ccc(Cl)cc3)nc3ccccc23)CC1 [Compound 2-2, 2-(4-chlorobenzylamino)-4-(4-tert-butylaminopiperidin-1-yl)-quinoline] | – | 2200 ± 200 | dose-response cytotoxic activity | significant synergy combination effect | significant synergy combination effect | significant synergy combination effect | overall additive effect
3 | CCN(CCO)CCCC(C)Nc1ccnc2cc(Cl)ccc12 (stereo not drawn) [Hydroxychloroquine, hydroxychloroquine sulfate] | dose-response cytotoxic activity | 27200 ± 1200 | – | minor synergy without significant impact in vivo | only an additive effect | – | overall additive effect
4 | CC(=O)Nc1cccc(-n2c(=O)n(C3CC3)c(=O)c3c(Nc4ccc(I)cc4F)n(C)c(=O)c(C)c32)c1 [Trametinib] | dose-response cytotoxic activity | 310 ± 260 | – | – | – | – | –
